Laboratory results from PubChem BioAssay AID200 (DTP/NCI, 2004).
Values joined by “and” are separate entries in the source; they are usually repeats but may differ in a detail not shown here. Equal entries are not always repeated. Toxic doses and inconclusive results are not listed.

Test system: B6C3F1 mice, B16 melanoma ip, median survival T/C
Assay: NCI In Vivo Anticancer Drug Screen. Data for tumor model B16 Melanoma (intraperitoneal) in B6C3F1 mice
Conditions: endpoint: median survival time, higher = longer survival
Outline: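 Readout: survival or tumor size in treated mice relative to vehicle controls (T/C). Model uses transplantable tumors grown in mice.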

[1] = dose: 50.0 mg/kg/injection, schedule: Q01DX009 (ip), vehicle: saline with Tween-80
[2] = dose: 100.0 mg/kg/injection, schedule: Q01DX009 (ip), vehicle: saline with Tween-80
[3] = dose: 25.0 mg/kg/injection, schedule: Q01DX009 (ip), vehicle: saline with Tween-80
[4] = dose: 50.0 mg/kg/injection, schedule: Q01DX009 (ip), vehicle: saline
[5] = dose: 50.0 mg/kg/injection, schedule: Q01DX009 (ip), vehicle: Klucel (hydroxypropylcellulose) (HPC)

CO[C@@]12[C@H](COC(N)=O)C3=C(C(=O)C(C)=C(N)C3=O)N1C[C@@H]1N[C@@H]12
T/C (dose: 0.12 mg/kg/injection, schedule: Q01DX009 (ip), vehicle: Klucel (hydroxypropylcellulose) (HPC)): 109 % of control | T/C (dose: 0.12 mg/kg/injection, schedule: Q01DX009 (ip), vehicle: saline with Tween-80): 119 % of control | T/C (dose: 0.12 mg/kg/injection, schedule: Q01DX009 (ip), vehicle: saline): 120 % of control and 100 % of control | T/C (dose: 0.13 mg/kg/injection, schedule: Q01DX009 (ip), vehicle: water): 109 % of control and 110 % of control | T/C (dose: 0.25 mg/kg/injection, schedule: Q01DX005 (ip), vehicle: saline): 124 % of control | T/C (dose: 0.25 mg/kg/injection, schedule: Q01DX005 (iv), vehicle: saline): 107 % of control | T/C (dose: 0.25 mg/kg/injection, schedule: Q01DX009 (ip), vehicle: Klucel (hydroxypropylcellulose) (HPC)): 116 % of control | T/C (dose: 0.25 mg/kg/injection, schedule: Q01DX009 (ip), vehicle: saline): 115 % of control | T/C (dose: 0.25 mg/kg/injection, schedule: Q01DX009 (ip), vehicle: water): 124 % of control | T/C (dose: 0.5 mg/kg/injection, schedule: Q01DX001 (ip), vehicle: clinical formulation): 122 % of control | T/C (dose: 0.5 mg/kg/injection, schedule: Q01DX005 (ip), vehicle: saline): 166 % of control | T/C (dose: 0.5 mg/kg/injection, schedule: Q01DX005 (iv), vehicle: saline): 86 % of control | T/C (dose: 0.5 mg/kg/injection, schedule: Q01DX009 (ip), vehicle: Klucel (hydroxypropylcellulose) (HPC)): 116 % of control | T/C (dose: 0.5 mg/kg/injection, schedule: Q01DX009 (ip), vehicle: saline with Tween-80): 166 % of control | T/C (dose: 0.5 mg/kg/injection, schedule: Q01DX009 (ip), vehicle: saline): 161 % of control | T/C (dose: 0.5 mg/kg/injection, schedule: Q01DX009 (ip), vehicle: water): 150 % of control | T/C (dose: 0.75 mg/kg/injection, schedule: Q04DX003 (ip), vehicle: clinical formulation): 121 % of control | T/C (dose: 1.0 mg/kg/injection, schedule: Q01DX001 (ip), vehicle: saline): 165 % of control | T/C (dose: 1.0 mg/kg/injection, schedule: Q01DX001 (iv), vehicle: saline): 93 % of control | T/C (dose: 1.0 mg/kg/injection, schedule: Q01DX005 (ip), vehicle: saline): 168 % of control | T/C (dose: 1.0 mg/kg/injection, schedule: Q01DX009 (ip), vehicle: Klucel (hydroxypropylcellulose) (HPC)): 155 % of control | T/C (dose: 1.0 mg/kg/injection, schedule: Q01DX009 (ip), vehicle: saline with Tween-80): 191 % of control | T/C (dose: 1.0 mg/kg/injection, schedule: Q01DX009 (ip), vehicle: saline): 185 % of control | T/C (dose: 1.0 mg/kg/injection, schedule: Q01DX009 (ip), vehicle: water): 156 % of control and 173 % of control | T/C (dose: 1.0 mg/kg/injection, schedule: Q04DX003 (ip), vehicle: clinical formulation): 156 % of control and 160 % of control | T/C (dose: 1.25 mg/kg/injection, schedule: Q01DX009 (oral), vehicle: water): 91 % of control | T/C (dose: 2.0 mg/kg/injection, schedule: Q01DX001 (ip), vehicle: clinical formulation): 159 % of control | T/C (dose: 2.0 mg/kg/injection, schedule: Q01DX001 (iv), vehicle: saline): 118 % of control | T/C (dose: 2.0 mg/kg/injection, schedule: Q01DX005 (ip), vehicle: saline): 179 % of control | T/C (dose: 2.0 mg/kg/injection, schedule: Q01DX009 (ip), vehicle: water): 190 % of control | T/C (dose: 2.0 mg/kg/injection, schedule: Q04DX003 (ip), vehicle: clinical formulation): 190 % of control and 195 % of control | T/C (dose: 2.5 mg/kg/injection, schedule: Q01DX009 (oral), vehicle: water): 102 % of control | T/C (dose: 3.0 mg/kg/injection, schedule: Q04DX003 (ip), vehicle: clinical formulation): 203 % of control | T/C (dose: 4.0 mg/kg/injection, schedule: Q01DX001 (ip), vehicle: clinical formulation): 193 % of control | T/C (dose: 4.0 mg/kg/injection, schedule: Q01DX001 (ip), vehicle: saline): 176 % of control | T/C (dose: 4.0 mg/kg/injection, schedule: Q01DX001 (iv), vehicle: saline): 115 % of control | T/C (dose: 4.0 mg/kg/injection, schedule: Q04DX003 (ip), vehicle: clinical formulation): 239 % of control | T/C (dose: 8.0 mg/kg/injection, schedule: Q01DX001 (ip), vehicle: clinical formulation): 164 % of control | T/C (dose: 8.0 mg/kg/injection, schedule: Q01DX001 (ip), vehicle: saline): 216 % of control

NC(=O)SCC(N)C(=O)O (configuration not stated)
T/C [1]: 92 % of control | T/C [2]: 87 % of control | T/C (dose: 200.0 mg/kg/injection, schedule: Q01DX009 (ip), vehicle: saline with Tween-80): 96 % of control

CN(N=O)C(=O)NCCCCCNC(=O)N(C)N=O
T/C (dose: 12.5 mg/kg/injection, schedule: Q01DX009 (ip), vehicle: saline with Tween-80): 98 % of control | T/C [3]: 100 % of control | T/C [1]: 109 % of control | T/C [2]: 110 % of control

CC(=O)c1ccc(C)cc1C
T/C [3]: 105 % of control | T/C [1]: 92 % of control | T/C [2]: 98 % of control

CNC(=O)OCc1c(COC(=O)NC)c(-c2ccccc2)n(C)c1-c1ccccc1
T/C (dose: 12.5 mg/kg/injection, schedule: Q01DX009 (ip), vehicle: distilled water + Tween-80): 172 % of control | T/C (dose: 25.0 mg/kg/injection, schedule: Q01DX009 (ip), vehicle: distilled water + Tween-80): 177 % of control

NC(CCC(=O)Nc1ccc(O)cc1)C(=O)O (configuration not stated)
T/C [4]: 117 % of control | T/C (dose: 100.0 mg/kg/injection, schedule: Q01DX009 (ip), vehicle: saline): 120 % of control | T/C (dose: 200.0 mg/kg/injection, schedule: Q01DX009 (ip), vehicle: saline): 103 % of control | T/C (dose: 400.0 mg/kg/injection, schedule: Q01DX009 (ip), vehicle: saline): 124 % of control

CSc1cc(=O)n2c3ccccc3c3ccnc1c32
T/C (dose: 0.62 mg/kg/injection, schedule: Q01DX009 (ip), vehicle: saline with Tween-80): 96 % of control | T/C (dose: 1.25 mg/kg/injection, schedule: Q01DX009 (ip), vehicle: saline with Tween-80): 101 % of control | T/C (dose: 2.5 mg/kg/injection, schedule: Q01DX009 (ip), vehicle: saline with Tween-80): 105 % of control | T/C (dose: 5.0 mg/kg/injection, schedule: Q01DX009 (ip), vehicle: saline with Tween-80): 109 % of control | T/C (dose: 10.0 mg/kg/injection, schedule: Q01DX009 (ip), vehicle: saline with Tween-80): 114 % of control

O=C1NC(=O)C2(CCC(C3CCCCC3)CC2)N1 (configuration not stated)
T/C [5]: 87 % of control | T/C (dose: 100.0 mg/kg/injection, schedule: Q01DX009 (ip), vehicle: Klucel (hydroxypropylcellulose) (HPC)): 89 % of control | T/C (dose: 200.0 mg/kg/injection, schedule: Q01DX009 (ip), vehicle: Klucel (hydroxypropylcellulose) (HPC)): 89 % of control

CC1=NN(c2ccccc2)C(=O)C1N=Nc1ccccc1S(=O)(=O)O (configuration not stated)
T/C (dose: 12.5 mg/kg/injection, schedule: Q01DX009 (ip), vehicle: saline): 104 % of control | T/C (dose: 25.0 mg/kg/injection, schedule: Q01DX009 (ip), vehicle: saline): 94 % of control | T/C [4]: 96 % of control

COc1cc(Cl)ccc1C
T/C (dose: 9.37 mg/kg/injection, schedule: Q01DX009 (ip), vehicle: Klucel (hydroxypropylcellulose) (HPC)): 100 % of control | T/C (dose: 18.75 mg/kg/injection, schedule: Q01DX001 (ip), vehicle: Klucel (hydroxypropylcellulose) (HPC)): 109 % of control | T/C (dose: 18.75 mg/kg/injection, schedule: Q01DX009 (ip), vehicle: Klucel (hydroxypropylcellulose) (HPC)): 100 % of control | T/C (dose: 37.5 mg/kg/injection, schedule: Q01DX001 (ip), vehicle: Klucel (hydroxypropylcellulose) (HPC)): 107 % of control | T/C (dose: 37.5 mg/kg/injection, schedule: Q01DX009 (ip), vehicle: Klucel (hydroxypropylcellulose) (HPC)): 98 % of control | T/C (dose: 75.0 mg/kg/injection, schedule: Q01DX001 (ip), vehicle: Klucel (hydroxypropylcellulose) (HPC)): 115 % of control | T/C (dose: 75.0 mg/kg/injection, schedule: Q01DX009 (ip), vehicle: Klucel (hydroxypropylcellulose) (HPC)): 101 % of control | T/C (dose: 150.0 mg/kg/injection, schedule: Q01DX001 (ip), vehicle: Klucel (hydroxypropylcellulose) (HPC)): 110 % of control | T/C (dose: 150.0 mg/kg/injection, schedule: Q01DX009 (ip), vehicle: Klucel (hydroxypropylcellulose) (HPC)): 100 % of control | T/C (dose: 300.0 mg/kg/injection, schedule: Q01DX001 (ip), vehicle: Klucel (hydroxypropylcellulose) (HPC)): 111 % of control | T/C (dose: 300.0 mg/kg/injection, schedule: Q01DX009 (ip), vehicle: Klucel (hydroxypropylcellulose) (HPC)): 95 % of control

CC(=O)OCC1OC(OC2=C(CC=C(C)C)C(=O)c3ccccc3C2=O)C(OC(C)=O)C(OC(C)=O)C1OC(C)=O (configuration not stated)
T/C (dose: 3.12 mg/kg/injection, schedule: Q01DX009 (ip), vehicle: Klucel (hydroxypropylcellulose) (HPC)): 104 % of control | T/C (dose: 6.25 mg/kg/injection, schedule: Q01DX009 (ip), vehicle: Klucel (hydroxypropylcellulose) (HPC)): 95 % of control | T/C (dose: 12.5 mg/kg/injection, schedule: Q01DX009 (ip), vehicle: Klucel (hydroxypropylcellulose) (HPC)): 98 % of control | T/C (dose: 25.0 mg/kg/injection, schedule: Q01DX009 (ip), vehicle: Klucel (hydroxypropylcellulose) (HPC)): 106 % of control | T/C [5]: 94 % of control
